Measured values published in US9650364B2, “Quinazolines as kinase inhibitors” (GlaxoSmithKline Intellectual Property Development Limited, priority 2013, dated 2017).
Like-named read-outs stand apart in the source and are kept apart here. Blank lines part the entries; values can stand above or below the compound they belong to.

Legend:
[1] = test system: RIP2 kinase-dependent cytokine production (TNFα) in human whole blood; assay: MDP-stimulated human whole blood cytokine (TNFα) production assay; format: cell-based; conditions: inhibition of TNFα, MDP 100 ng/mL, 6 hr, mean of minimum 2 experiments
Description: A muramyl dipeptide (MDP)-stimulated human whole blood cytokine production assay was developed to evaluate the cellular potency and efficacy of novel test compounds. Heparinized blood (160 μL) obtained from healthy human volunteers was dispensed into individual wells of a multiwell plate. Test compounds were dissolved in 100% DMSO and diluted in calcium- and magnesium-free D-PBS to prepare 10× working stock solutions. Twenty microliters of diluted test compound was added per well and the plates were placed on a plate shaker (500 rpm) and incubated for 30 min in a humidified incubator (37° C., 5% CO2). A 10× working stock of MDP was prepared in sterile, endotoxin-free water containing 1% DMSO. Twenty microliters of the MDP stock solution was added per well (final conc.=100 ng/mL) to stimulate RIP2 kinase-dependent cytokine production. The final concentration of DMSO was 0.1% (v/v) in all wells. Plates were incubated for an additional 6 hr (as noted above). Then an additional 100 μL of D-PBS (Dulbecco's phosphate-buffered saline) was added/well, the plates were centrifuged, and supernatants collected. TNFα levels in the supernatants were quantified using a commercial immunoassay (MesoScale Discovery). Test compound inhibition was expressed as percent (%) inhibition of internal assay controls. For concentration/dose response experiments, normalized data were fit and pIC50s determined using conventional techniques. The pIC50s are averaged to determine a mean value, for a minimum of 2 experiments.

[2] = target: T1, RIPK2 (full length FLAG His tagged) (Homo sapiens, UniProt O43353); assay: Fluorescent polarization based binding assay at the ATP binding pocket of RIPK2; conditions: RIPK2 FP binding
T1 construct: Full length FLAG His tagged RIPK2 was purified from a Baculovirus expression system; FLAG (N); 6His (N); made in house; host or cells: Spodoptera frugiperda (Sf9) insect cells, baculovirus
T1 sequence (O43353 whole entry): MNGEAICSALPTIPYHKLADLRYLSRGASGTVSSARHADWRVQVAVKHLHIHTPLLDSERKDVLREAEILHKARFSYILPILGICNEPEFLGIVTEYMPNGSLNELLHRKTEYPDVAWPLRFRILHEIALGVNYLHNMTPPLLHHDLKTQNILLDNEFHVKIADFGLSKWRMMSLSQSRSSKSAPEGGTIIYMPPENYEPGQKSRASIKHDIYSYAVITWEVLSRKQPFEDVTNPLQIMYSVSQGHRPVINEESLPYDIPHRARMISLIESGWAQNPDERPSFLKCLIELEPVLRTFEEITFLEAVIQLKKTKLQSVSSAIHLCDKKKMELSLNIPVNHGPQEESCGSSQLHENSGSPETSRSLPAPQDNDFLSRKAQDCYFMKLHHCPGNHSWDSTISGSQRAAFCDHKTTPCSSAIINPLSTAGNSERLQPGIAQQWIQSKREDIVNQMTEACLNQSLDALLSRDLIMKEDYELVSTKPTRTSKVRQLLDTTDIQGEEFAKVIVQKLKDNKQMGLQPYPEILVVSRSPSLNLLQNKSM
Source text: A fluorescent polarization based binding assay was developed to quantitate interaction of novel test compounds at the ATP binding pocket of RIPK2, by competition with a fluorescently labeled ATP competitive ligand. Full length FLAG His tagged RIPK2 was purified from a Baculovirus expression system and was used at a final assay concentration of twice the KDapparent. A fluorescent labeled ligand (5-({[2-({[3-({4-[(5-hydroxy-2-methylphenyl)amino]-2-pyrimidinyl}amino)phenyl]carbonyl}amino)ethyl]amino}carbonyl)-2-(6-hydroxy-3-oxo-3H-xanthen-9-yl)benzoic acid, prepared as described in WO2011/120025) was used at a final assay concentration of 5 nM. Both the enzyme and ligand were prepared in solutions in 50 mM HEPES pH7.5, 150 mM NaCl, 10 mM MgCl2, 1 mM DTT, and 1 mM CHAPS. Test compounds were prepared in 100% DMSO and 100 nL was dispensed to individual wells of a multiwell plate. Next, 5 ul RIPK2 was added to the test compounds at twice the final assay concentration, and incubated at rt for 10 min. Following the incubation, 5 ul of the fluorescent labeled ligand solution, was added to each reaction, at twice the final assay concentration, and incubated at rt for at least 10 min. Finally, samples were read on an instrument capable of measuring fluorescent polarization. Test compound inhibition was expressed as percent (%) inhibition of internal assay controls.
For concentration/dose response experiments, normalized data were fit and pIC50s determined using conventional techniques. The pIC50s are averaged to determine a mean value, for a minimum of 2 experiments.
Full-length human RIPK2 (receptor-interacting serine-threonine kinase 2) cDNA was purchased from Invitrogen (Carlsbad, Calif., USA, Clone ID:IOH6368, RIPK2-pENTR 221). Gateway® LR cloning was used to site-specifically recombine RIPK2 downstream to an N-terminal FLAG-6His contained within the destination vector pDEST8-FLAG-His6 according to the protocol described by Invitrogen. Transfection into Spodoptera frugiperda (Sf9) insect cells was performed using Cellfectin® (Invitrogen), according to the manufacturer's protocol.

[3] = test system: isolated rabbit left ventricular wedge preparation; assay: Rabbit cardiac wedge preparation (ECG and isometric contractile force); conditions: for TdP Score: BCL=2000 ms, score range −2 to 14; for TdP Score / ICF (% change), contractility / QRS / QT / Tp-e (msec), transmural dispersion / Δ QT %: mean, n = 2; for Proarrhythmia: preparations affected of n = 2
Description: Female rabbits weighing 2.2-3 kg were anticoagulated with heparin and anesthetized with pentobarbital (50 mg/kg, i.v.). The chest was opened via a left thoracotomy, and the heart was excised and placed in a cardioplegic solution consisting of cold (4° C.) normal Tyrode's solution. A transmural wedge with dimensions of approximately 1.5 cm wide and 2-3 cm long was dissected from the left ventricle.
The wedge tissue was cannulated via the left anterior descending artery or the circumflex artery and perfused with cardioplegic solution. The preparation was then placed in a small tissue bath and arterially perfused with Tyrode's solution (T: 35.7±0.1° C., perfusion pressure: 30-45 mmHg). The ventricular wedge was allowed to equilibrate in the tissue bath until electrically stable, usually one hour. The preparations were stimulated at basic cycle lengths (BCL) of 1000 and 2000 msec using bipolar silver electrodes insulated except at the tips and applied to the endocardial surface.
A transmural electrocardiogram (ECG) was recorded in all experiments using extracellular silver/silver chloride electrodes placed in the Tyrode's solution bathing the preparation 1.0 to 1.5 cm from the epicardial and endocardial surfaces, along the same vector as the transmembrane recordings (Epi: “+” pole). On the ECG, transmural dispersion of repolarization (TDR) was defined by the interval between the end and the peak of T wave (Tp-e). The QT interval was defined as the time from the onset of the QRS to the point at which the final downslope of the T wave crossed the isoelectric line. QRS, QT, and Tp-e durations are measured for 10 sweeps and averaged per treatment. Data from total population of animals is averaged per treatment, and compared to average control values.
isometric contractile force generation (% ICF) is measured for 10 sweeps and averaged per treatment. Data from total population of animals is averaged per treatment, and compared to average control values.
Each test compound was prepared in 100% DMSO at a stock concentration of 30 mM. Compound was diluted to the highest concentration tested into Tyrode's buffer (containing in mM: 129 NaCl, 4 KCl, 0.9 NaH2PO4, 20 NaHCO3, 1.8 CaCl2, 0.5 MgSO4, and 5.5 glucose, pH 7.4 when buffered with 95% O2 and 5% CO2) from which subsequent serial dilutions were prepared.
Each test compound was tested at 4 concentrations, from 1-30 μM. After the wedge preparations were perfused with normal Tyrode's solution and stimulated at a BCL of 1000 msec for one hour, stimulation frequency was reduced to a BCL of 2000 msec for a 5 minute period of stabilization after which baseline ECG and isometric contractile force (ICF) were recorded. The preparations were then returned to a BCL of 1000 msec and perfused with Tyrode's solution containing a test compound. For each test compound concentration, wedge preparations were perfused for 20 minutes at a BCL of 1000 msec followed by 5 minutes at a BCL of 2000 msec during which ECG and ICF were recorded. The compound of Example 2 (6-(tert-butylsulfonyl)-N-(4,5-dimethyl-1H-pyrazol-3-yl)-7-ethoxyquinazolin-4-amine) was evaluated in the rabbit cardiac wedge preparation. The four major readouts from the wedge preparation include QT prolongation, torsadogenicity (TdP score derived from QT, Tp-e and early after depolarizations), impulse conduction (QRS-related) and contractility, which are presented in Table 2.
A scoring system was used for the estimate of risk of a compound for the relative TdP risk using the isolated rabbit left ventricular wedge preparation: points for the QT interval, the Tp-e/QT ratio. The TdP score was generated by first converting the QT interval and Tp-e/QT ratio to % change from baseline. These values are individually assigned a TdP score based on the following system: <−5%=−1, −5% to 10%=0, 10% to 20%=1, 20% to 30%=2, >30%=3. Total scoring system range is −2 to 14 at BCL=2000 ms.

337 member kinase panel = assay: Kinome selectivity, in vitro profiling (Reaction Biology Corporation); format: biochemical; conditions: compound at 1 μM
Description: Kinome selectivity (as conducted by Reaction Biology Corporation, One Great Valley Parkway, Malvern, Pa., USA, 19355, http://www.reactionbiology.com) for the compound of Example 2 (6-(tert-butylsulfonyl)-N-(4,5-dimethyl-1H-pyrazol-3-yl)-7-ethoxyquinazolin-4-amine) was determined via in vitro profiling against a 337 member kinase panel.

[4] = mean of minimum 2 experiments, read-out: pIC50 (converted)
[5] = updated average after continued testing, read-out: average pIC50 after continued testing (converted)

IC50 [1]: 100 nM
IC50 [2, 4]: 12.6 nM
IC50 [2, 5]: 7.94 nM
Compound: CCCOc1cc2ncnc(Nc3n[nH]c(C)c3C)c2cc1S(=O)(=O)C(C)(C)C [Example 3, 6-(tert-Butylsulfonyl)-N-(4,5-dimethyl-1H-pyrazol-3-yl)-7-propoxyquinazolin-4-amine]

IC50 [1]: 63.1 nM
IC50 [2, 4]: 10 nM
Compound: Cc1[nH]nc(Nc2ncnc3cc(OCC4CCCO4)c(S(=O)(=O)C(C)(C)C)cc23)c1C (stereo not shown) [Example 4, 6-(tert-Butylsulfonyl)-N-(4,5-dimethyl-1H-pyrazol-3-yl)-7-((tetrahydrofuran-2-yl)methoxy)quinazolin-4-amine]

IC50 [1]: 63.1 nM
number of kinases with >50% inhibition, of 337 kinases tested (337 member kinase panel): 4
number of kinases with >70% inhibition, of 337 kinases tested (337 member kinase panel): 1
IC50 [2, 4]: 15.8 nM
Compound: CCOc1cc2ncnc(Nc3n[nH]c(C)c3C)c2cc1S(=O)(=O)C(C)(C)C [Example 2, 6-(tert-Butylsulfonyl)-N-(4,5-dimethyl-1H-pyrazol-3-yl)-7-ethoxyquinazolin-4-amine]
TdP Score ([3]; 1 μM): −0.50
ICF (% change), contractility ([3]; 1 μM): −4.4%
QRS ([3]; 1 μM): 39.6 ms
QT ([3]; 1 μM): 346.4 ms
Tp-e (msec), transmural dispersion ([3]; 1 μM): 71.9 ms
Δ QT % ([3]; 1 μM): 3%
Proarrhythmia ([3]; 1 μM): 0/2
TdP Score ([3]; 3 μM): 0.00
ICF (% change), contractility ([3]; 3 μM): −5.3%
QRS ([3]; 3 μM): 39.2 ms
QT ([3]; 3 μM): 351.9 ms
Tp-e (msec), transmural dispersion ([3]; 3 μM): 73.2 ms
Δ QT % ([3]; 3 μM): 4.8%
Proarrhythmia ([3]; 3 μM): 0/2
TdP Score ([3]; 10 μM): −0.50
ICF (% change), contractility ([3]; 10 μM): −15.1%
QRS ([3]; 10 μM): 39.4 ms
QT ([3]; 10 μM): 348.8 ms
Tp-e (msec), transmural dispersion ([3]; 10 μM): 68.4 ms
Δ QT % ([3]; 10 μM): 4.0%
Proarrhythmia ([3]; 10 μM): 0/2
TdP Score ([3]; 30 μM): −0.50
ICF (% change), contractility ([3]; 30 μM): −20.7%
QRS ([3]; 30 μM): 39.7 ms
QT ([3]; 30 μM): 348.8 ms
Tp-e (msec), transmural dispersion ([3]; 30 μM): 69.1 ms
Δ QT % ([3]; 30 μM): 4.0%
Proarrhythmia ([3]; 30 μM): 0/2

IC50 [1]: 39.8 nM
IC50 [2, 4]: 39.8 nM
IC50 [2, 5]: 31.6 nM
Compound: COCCOc1cc2ncnc(Nc3n[nH]c(C)c3C)c2cc1S(=O)(=O)C(C)(C)C [Example 1, 6-(tert-Butylsulfonyl)-N-(4,5-dimethyl-1H-pyrazol-3-yl)-7-(2-methoxyethoxy)quinazolin-4-amine]
